From patent US8846125B2, “Enaminocarbonyl compounds and their use” (Instytut Chemii Organicznej, Polska Akademia Nauk, priority 2009, dated 2014) come the findings set out here.

SMILES strings stand for the structures.

What all share (type): in vivo, healthy men
Experiment [1] concerns perception of sweetness (panel members). The experiment is described as follows: Comparative analysis of the intensity of the sweet taste against a 10% saccharose reference solution. The note with it: for Results of sweetness comparisons against the reference solution [+] (sample sweeter) / Results of sweetness comparisons against the reference solution [=] (unable to tell) / Results of sweetness comparisons against the reference solution [−] (sample less sweet): count out of 10 comparative tests, reference 10% saccharose in 20% ethanol. The source says: During the next stage, we performed a comparative analysis of the intensity of the sweet taste. In the study we used the compound of example 1 (3-benzyl-aminomethylenedihydrofuran-2-one). The subject of the study consisted of samples of the initial 4000 ppm solution, and samples of diluted solutions containing 2000, 1000, 800 and 500 ppm of the compound of example 1.
The reference solution comprised 10% saccharose (wt./wt.) in 20% ethanol, containing 100000 ppm (wt./wt.) saccharose.
The study operator gave the panel members samples of the compound with the formula 1 marked with randomly generated 3-digit numbers, and also samples of the reference solution of saccharose in order to compare the perception of sweetness to the saccharose reference solution. Each of the 5 panel members received for comparison random samples of the solutions of the compound of example 1, twice, containing 4000 ppm, 2000 ppm, 1000 ppm, 800 ppm and 500 ppm of the compound. Each concentration was thus examined in 10 comparative tests.
The task for each panel member was to determine whether a given sample is less or more sweet than the reference solution. Each of the panel members completed a form according to the following rules: if a sample was sweeter, then he placed a plus sign [+] beside the symbol of the sample, if it was less sweet, a minus sign [−], and if in doubt, an equal sign [=]. Similar to the qualitative analysis, each of the panel members received a sample of 10 ml of a solution in a small vial, gently rinsed his mouth out with it for 20 seconds and then spat out the tested solution. Next, he carefully rinsed out his mouth with a large volume of distilled water (at least 150 ml) for at least 30 seconds. When the panel member felt that he no longer perceived any taste, he could proceed with the evaluation of the next solution.

The test system of experiment [2] is perception of sweet taste (panel members). The experiment is described as follows: Qualitative evaluation of the perception of sweet taste by a 5-volunteer panel. Also noted: key to Perception of sweet taste: +: perception of sweet taste; ++: very strong perception of sweet taste; −: absence of sweet taste. Particulars: 4000 ppm solution in 20% ethanol, 5 panel members; for Perception of sweet taste: 10 ml mouth rinse 20 s. On the procedure:
Compounds according to the present invention destined for testing of their taste perception modifying properties were re-crystallized from ethanol or an ethanol-water mixture.
Qualitative evaluation of the perception of sweet taste; the examined substances were dissolved in a 20% ethanol and water mixture (vol./vol.).
Three initial solutions were formulated, containing: • the compound of example 1 (3-benzylaminomethylenedihydrofuran-2-one, 4000 ppm solution-400 mg in 100 ml 20% ethanol), • compound of example 2 ((R)-3-(1-phenylethylamino)methylenedihydrofuran-2-one, 4000 ppm solution-400 mg in 100 ml 20% ethanol), • compound of example 6 (2-benzylaminomethylenecyclopentanone, 4000 ppm solution−400 mg in 100 ml 20% ethanol).
Solutions of lower concentrations were obtained through dilution, to appropriate proportions, of the initial solutions with a 20% mixture of ethanol and distilled water (vol./vol.).
(§1) Evaluation of the degree of sweetness of the compounds according to the present invention was performed using a 5-volunteer panel—healthy men—henceforth referred to as panel members. All panel members were informed of the need to maintain safety procedures during the evaluation of the compounds according to the present invention, In particular, of the need to avoid swallowing the tested solutions. Each of the panel members received a 10 ml sample of a solution in a small vial and rinsed out their mouth with the entire contents of the vial for 20 seconds and then spit out the tested solution. Next, they carefully rinsed out their mouth with a large volume of distilled water (at least 150 ml) for at least 30 seconds. When the panel member felt that they no longer perceived any taste, they could proceed with the evaluation of the next solution.
During the first stage, the panel members qualitatively examined the taste of the three initial solutions containing 4000 ppm of a compound according to the present invention. The panel members all agreed that the solutions have an intensive sweet taste.
An additional qualitative evaluation was made of compounds according to the present invention from examples 4, 7 and 9, and compounds from comparative examples 1-19, in the form of 4000 ppm solutions. […] Solutions of compounds from the comparative examples lack a sweet taste.

For experiment [3], the system named is sweet taste of sweet-tasting products (panel members). Kind of experiment: Inhibition of sweet taste of sweet products, commercial sweeteners and sweet compounds by the compound of example 3. Particulars: for Perceived sweet taste: without compound of example 3. More on the design: key to Perceived sweet taste: ++: Strong perception of sweet taste; key to Perception of sweet taste following the addition of the compound of example 3: <<+: Weak or absent perception of sweet taste. The procedure: Evaluation of the degree of sweetness of the compounds according to the present invention was performed using a 5-volunteer panel-healthy men-henceforth referred to as panel members. All panel members were informed of the need to maintain safety procedures during the evaluation of the compounds according to the present invention, In particular, of the need to avoid swallowing the tested solutions. Each of the panel members received a 10 ml sample of a solution in a small vial and rinsed out their mouth with the entire contents of the vial for 20 seconds and then spit out the tested solution. Next, they carefully rinsed out their mouth with a large volume of distilled water (at least 150 ml) for at least 30 seconds. When the panel member felt that they no longer perceived any taste, they could proceed with the evaluation of the next solution. Solutions of sweet products were prepared (saccharose, glucose, bee honey, glycine), by dissolving 100 mg of the product in 5 ml 20% aqueous ethanol. Two solutions are prepared of each product. One of these solutions is supplemented with a compound according to example 3 of the present invention (100 mg). Next, the taste of both solutions is compared for evaluating the qualitative perception of the taste of both solutions, proceeding according to the procedure established above, for the qualitative evaluation of the perception of sweet taste. The study results are compiled in Table 4. Solutions of commercially available sweeteners were prepared (“Sweet Top®” containing aspartame and […]®” containing sorbitol, sodium cyclamate and sodium saccharinate), by dissolving 5 mg of the sweetener in 20 ml of 20% aqueous ethanol. Each sweetener solution was made up twice. One of these solutions was supplemented with a compound according to example 3 of the present invention (5 mg). Next, the taste of both solutions was evaluated proceeding according to the procedure shown above, for the qualitative evaluation of the perception of sweet taste. The study results are compiled in Table 4. Solutions of compounds with a sweet taste according to the present invention were prepared (compounds of examples 1, 2 and 6), dissolving 5 mg of the compound according to the present invention in 20 ml 20% of aqueous ethanol. Two solutions were made of each compound of examples 1, 2 and 6. One of these solutions was supplemented with the compound of example 3 according to the present invention (5 mg). Next, the taste of both solutions was evaluated proceeding according to the above procedure for the qualitative evaluation of the perception of sweet taste. The study results are compiled in Table 4.

In experiment [4] the test system is sweet taste of saccharose (panel members). The experiment is described as follows: Inhibition of sweet taste of a saccharose solution, qualitative panel evaluation. Also noted: key to Inhibition of sweet taste: ++: complete inhibition of sweet taste; −: lack of inhibition of sweet taste. Particulars: 100 mg saccharose in 5 ml 20% aqueous ethanol plus 100 mg compound, vs saccharose solution without compound. On the procedure: as §1
The inhibition of sweet taste of sweet substances or mixtures thereof by inhibitors of sweet taste according to the present invention was examine qualitatively according to the following procedure. Two samples of saccharose, each of 100 mg, are dissolved in 5 ml 20% of aqueous ethanol, and then one solution is supplemented with 100 mg of a compound of an example according to the present invention (compounds from examples 3, 5, and 8). Next, the taste of both solutions is evaluated using the procedure presented above, for the qualitative perception of a sweet taste. […] The study was also performed on compounds from comparative examples 1-19.

[5] abbreviates: approximate interpretation of the dilution series, comparison with a 10% saccharose solution in 20% ethanol.
Setting [6] is: 5 mg in 20 ml 20% aqueous ethanol plus 5 mg compound of example 3.
Setting [7] is: 5 mg in 20 ml 20% aqueous ethanol.
Setting [8] is: 100 mg product in 5 ml 20% aqueous ethanol plus 100 mg compound of example 3.
The mark [9] stands for this setting: 100 mg product in 5 ml 20% aqueous ethanol.

Take `O=C1OCCC1=CNCc1ccccc1` [Example 1, 3-Benzylaminomethylenedihydrofuran-2-one]: the “Results of sweetness comparisons against the reference solution [+] (sample sweeter)” value came to 2 in experiment [1] (500 ppm in 20% ethanol); 2 in experiment [1] (800 ppm in 20% ethanol); 8 in experiment [1] (1000 ppm in 20% ethanol); 10 in experiment [1] (2000 ppm in 20% ethanol); 10 in experiment [1] (4000 ppm in 20% ethanol). Moreover, the “Results of sweetness comparisons against the reference solution [=] (unable to tell)” value in experiment [1] (500 ppm in 20% ethanol) came out at 2; in experiment [1] (800 ppm in 20% ethanol) it was 6. For the same molecule, the “Results of sweetness comparisons against the reference solution [−] (sample less sweet)” value in experiment [1] (500 ppm in 20% ethanol) was 6; in experiment [1] (800 ppm in 20% ethanol) it was 2; in experiment [1] (1000 ppm in 20% ethanol), 2. For the same molecule, the “Times sweeter than saccharose” value is on record as 200-250 times in experiment [1] (setting [5]) and “at least 50 times” in experiment [1] (concluded from the initial 4000 ppm solution vs 10% saccharose reference). In experiment [1] (initial 4000 ppm solution vs 10% saccharose (100000 ppm) in 20% ethanol, all panel members), the “Sweetness of the initial solution compared with the reference solution (saccharose)” value is on record as “much sweeter than the reference solution”. The “Perception of sweet taste” value in experiment [2] was “++”. The “Perception of sweet taste following the addition of the compound of example 3” value (“Perception … of example 3” for short) in experiment [3] (setting [6]) is “<<+”. Besides, the “Sweet taste of the solution with an addition of the compound of example 3 (in words)” value (“Sweet taste of the solution” below) in experiment [3] (setting [6]) is reported as “only a trace perceived sweet taste”. Besides, the Perceived sweet taste entry in experiment [3] (setting [7]) is listed as “++”.
On to `C[C@@H](NC=C1CCOC1=O)c1ccccc1` [Example 2, (R)-3-(1-phenylethyl)aminomethylenedihydrofuran-2-one], for which the “Times sweeter than saccharose” value in experiment [1] (setting [5]) is on record as 200-250 times. In addition, in experiment [2], the “Perception of sweet taste” value is given as “++”. In experiment [3] (setting [6]), the “Perception … of example 3” value is listed as “<<+” and the “Sweet taste of the solution” value was “does not exhibit a sweet taste”. Besides, the Perceived sweet taste entry in experiment [3] (setting [7]) is “++”.
Turning to `C[C@H](NC=C1CCOC1=O)c1ccccc1` [Example 3, (S)-3-(1-phenylethyl)aminomethylenedihydrofuran-2-one], in experiment [4], the “Inhibition of sweet taste” value is “++” and the “Taste of the saccharose solution with the compound” value was “practically not sweet at all”.
On to `CC[C@@H](NC=C1CCOC1=O)c1ccccc1` [Example 4, (R)-3-(1-phenylpropylo)aminomethylenedihydrofuran-2-one], for which, in experiment [2], the “Taste of the solution as described by the panel members” value (“Taste of the solution as described” for short) is “intensively sweet taste” and the “Perception of sweet taste” value was “++”.
For the molecule `CC[C@H](NC=C1CCOC1=O)c1ccccc1` [Example 5, (S)-3-(1-phenylpropylo)aminomethylenedihydrofuran-2-one], in experiment [4], the “Inhibition of sweet taste” value is “++” and the “Taste of the saccharose solution with the compound” value is “practically not sweet at all”.
Take `O=C1CCCC1=CNCc1ccccc1` [Example 6, 2-Benzylaminomethylenecyclopentanone]: the “Times sweeter than saccharose” value in experiment [1] (setting [5]) is reported as “at least 250 times”. In addition, in experiment [2], the “Perception of sweet taste” value was “++”. In experiment [3] (setting [6]), the “Perception … of example 3” value was “<<+” and the “Sweet taste of the solution” value is listed as “only a trace perceived sweet taste”. Further, the Perceived sweet taste entry in experiment [3] (setting [7]) is given as “++”.
Regarding `C[C@@H](NC=C1CCCC1=O)c1ccccc1` [Example 7, (R)-2-(1-phenylethyl)aminomethylenecyclopentanone], in experiment [2], the “Taste of the solution as described” value is given as “intensively sweet taste” and the “Perception of sweet taste” value was “++”.
`O=C1OCCC1=CNCc1cccnc1` [Example 9, 3-(3-pirydylomethyl)aminomethylenedihydrofuran-2-one]: in experiment [2], the Bitter side taste entry is “somewhat bitter”, the “Taste of the solution as described” value is “significantly less sweet than the solution of 3-benzylaminomethylenedihydrofuran-2-one” and the “Perception of sweet taste” value is “+”. The Bitter side taste entry in experiment [2] (listed as example 9) is on record as “admixture of a bitter taste”.
`NCC(=O)O` [glycine, reference compound]: in experiment [3] (setting [8]), the “Perception … of example 3” value is recorded as “<<+” and the “Sweet taste of the solution” value was “do not elicit the perception of a sweet taste, not even a weak one”. Moreover, in experiment [3] (setting [9]), the Perceived sweet taste entry was “++”.
For `OC[C@H]1O[C@@](CO)(O[C@H]2O[C@H](CO)[C@@H](O)[C@H](O)[C@H]2O)[C@@H](O)[C@@H]1O` [saccharose, reference compound], in experiment [3] (setting [8]), the “Perception … of example 3” value is given as “<<+” and the “Sweet taste of the solution” value is listed as “do not elicit the perception of a sweet taste, not even a weak one”. Also, the Perceived sweet taste result in experiment [3] (setting [9]) is listed as “++”.
